Assay results taken from US8287919B2, “Low environmental impact pesticide made from “gras” ingredients for use against coqui frogs and other species” (priority 2009, dated 2012).
Where two headings read alike, the source gives them in different places.

Legend:
mature Palm trees = assay: Phytotoxicity to sprayed palm trees; type: in vivo; conditions: spray on mature palm trees
Procedure: Large-scale examples of the product's use and phytotoxicity at the same concentration (about 11.5%) as used in previous examples were also conducted by Palms of Hawaii. A five-gallon back pack sprayer equipped with a mist spray nozzle was used to spray mature Palm trees being prepared for distribution with about a gallon of spray each.
Upon spraying palm trees having frogs, frogs leap off the root balls and crowns and from the junctions between the fronds and tree trunks. The nurseryman rated the complete removal, if not extermination of all frogs from the trees as excellent.

common plants = tested on: common plants; design: key: severe: most if not all the leaves turned black; flowers and leaves became bleached and recovery was slow; moderate: young leaves and new shoots burned; the outer edges of leaves burned and dropped; dark brown spots appeared where acid may have concentrated; and recovery of the plants were slow; slight: the leaves were spotted white, or lesions formed on the trunk; conditions: citric acid 25%, three days after treatment, cited from earlier work
frogs = assay: Frog killing time with different concentrations; type: in vivo, Eleutherodactylus coqui
Procedure: Additionally, this formulation killed 10 out of 10 frogs within about 15 minutes.

human skin = assay: Contact with human skin; type: in vivo; conditions: solution with pH of less than 0.5
Procedure: As discussed above, AGIIS has relatively less dehydrating properties (such as charring sucrose) as compared to the saturated solution of CaSO4 in the same concentration of H2SO4. […] AGIIS has low volatility at room temperature and pressure.
In view of the need to find new phytogenic friendly alternatives for controlling the spread of Coqui frogs, a commercially available food sanitation product (i.e. Acidic Calcium Sulfate (“ACS”) was evaluated for inclusion in the current inventory of chemicals that can be applied as sprays. ACS and functional equivalents thereof are made from ingredients that are generally regarded as safe (“GRAS”), and is approved for use in food by the FDA and USDA. Although not wanting to be bound by theory, the efficacy of this product stems from its very unique characteristic of being able to donate a very high activity of hydrogen ions (low pH), while at the same time, having very low oxidative effects on plants and human skin. For example, a five (5) normal concentration of ACS having a pH of approximately zero may be held in the human hand without harm to the person holding the acid. In contrast, when very small amounts are applied to the skin of Coqui frogs it is quickly absorbed and respiration is immediately impaired with lethal results. […]

Coqui = conditions: in vivo; cited from earlier work

For `O=C(O)CC(O)(CC(=O)O)C(=O)O` [citric acid], the “phytotoxicity to palm trees” value (mature Palm trees) is listed as “typically causes browning”, the phytotoxicity rating (common plants; guava plant, bromeliad, dendrobium orchid and leatherleaf fern) is listed as “moderate” and the phytotoxicity rating (common plants; passion fruit and payaya) is listed as “slight”. For the same molecule, the phytotoxicity rating (common plants; streptocarpus, calathea and eggplants) was “severe”.
With `CCC(=O)O` [propionic acid] the “killing speed compared with standard citric acid” value (frogs; 5% solution) was “killed equally fast”, the “killing speed compared with standard citric acid” value (frogs; 10% solution) was “killed frogs faster than standard citric acid” and the lethality to frogs (frogs; concentrations from about 5% to about 10%) was “lethal to the frogs in the test group”.
For `O=S(=O)(O)O` [sulfuric acid], the “irritation of hand put into solution” value (human skin) was “an irritation would occur within a relatively short span of time”.
For `[Ca+2].[OH-].[OH-]` [hydrated lime], the “effectiveness in eradicating frogs” value (Coqui) is given as “not entirely effective”.
